We go through 43 molecules from patent US8889677B2, “Substituted triazoles useful as mGlu5 receptor modulators” (Boehringer Ingellheim International GmbH, priority 2012, dated 2014).

Broadly, the EC50 is the concentration at which the effect is half-maximal.

T1 sequence (P41594 21-1212): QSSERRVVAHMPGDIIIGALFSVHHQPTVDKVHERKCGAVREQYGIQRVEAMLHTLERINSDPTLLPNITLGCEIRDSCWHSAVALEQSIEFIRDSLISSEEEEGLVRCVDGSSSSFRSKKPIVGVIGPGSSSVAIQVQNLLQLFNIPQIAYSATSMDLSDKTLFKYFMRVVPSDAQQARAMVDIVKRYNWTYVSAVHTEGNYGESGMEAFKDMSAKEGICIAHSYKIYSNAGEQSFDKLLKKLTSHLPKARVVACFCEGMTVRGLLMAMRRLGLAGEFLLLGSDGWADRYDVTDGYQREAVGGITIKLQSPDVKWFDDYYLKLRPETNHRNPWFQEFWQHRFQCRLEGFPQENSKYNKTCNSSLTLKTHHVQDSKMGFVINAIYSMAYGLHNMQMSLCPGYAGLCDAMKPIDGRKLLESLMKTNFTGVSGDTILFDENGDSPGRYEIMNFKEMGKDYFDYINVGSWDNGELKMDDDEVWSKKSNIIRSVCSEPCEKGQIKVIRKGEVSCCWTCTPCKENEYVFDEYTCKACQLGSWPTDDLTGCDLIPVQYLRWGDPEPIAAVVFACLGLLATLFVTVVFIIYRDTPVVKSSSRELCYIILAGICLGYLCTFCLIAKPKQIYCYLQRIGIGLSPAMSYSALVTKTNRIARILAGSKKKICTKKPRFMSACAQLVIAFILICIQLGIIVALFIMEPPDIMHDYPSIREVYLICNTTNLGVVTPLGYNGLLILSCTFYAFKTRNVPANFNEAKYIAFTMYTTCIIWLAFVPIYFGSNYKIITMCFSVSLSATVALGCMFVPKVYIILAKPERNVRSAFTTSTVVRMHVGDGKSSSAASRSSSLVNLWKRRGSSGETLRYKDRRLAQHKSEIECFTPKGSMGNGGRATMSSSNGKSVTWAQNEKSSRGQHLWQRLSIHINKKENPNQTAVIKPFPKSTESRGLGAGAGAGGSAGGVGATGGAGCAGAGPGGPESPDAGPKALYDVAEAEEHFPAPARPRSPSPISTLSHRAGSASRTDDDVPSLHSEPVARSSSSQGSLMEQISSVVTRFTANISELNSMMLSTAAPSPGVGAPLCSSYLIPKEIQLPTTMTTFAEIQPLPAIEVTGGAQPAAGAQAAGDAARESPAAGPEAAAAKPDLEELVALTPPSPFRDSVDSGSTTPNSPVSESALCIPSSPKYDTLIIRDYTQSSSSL

This assay concerns the target T1, human recombinant mGluR5 (Homo sapiens, UniProt P41594).
T1 construct: expressed in transfected cells; host or cells: HEK 293 cell line cultured with tetracycline, hygromycin and geneticin; tetracycline removed 3-7 days before the assay
Kind of assay: positive modulation of mGluR5, calcium based FLIPR assay in HEK 293 cells. The settings on record: HEK 293 cell line expressing human recombinant mGluR5; EC50 of the modulation of the glutamate response (glutamate approx. 5% basal stimulation); peak height of Ca release fluorescence signal. As for the experimental part: The positive modulation of mGluR5 is measured in a HEK 293 cell line expressing human recombinant mGluR5 and is detected with calcium based FLIPR assay. The cells are cultured with DMEM supplemented with 10% FCS, 2 μg/mL tetracycline, 100 μg/mL hygromycin and 500 μg/mL gneticin. The cell culture media is exchanged for tetracycline-free cell culture media 3-7 days before the assay. One day before the assay the cell culture medium is exchanged to DMEM without glutamine and phenol red and supplemented with 10% FCS, 100 μg/mL hygromycin and 500 μg/mL geneticin. On the assay day, the medium of the subconfluent cultures is removed and the cells are detached by addition of 2.5 ml EDTA (0.02%) per 175 cm2 culture flask for 1 minute. The cells are resuspend in Ringer solution (140 mM NaCl, 5 mM KCl, 2.5 mM CaCl2, 1.5 mM MgCl2, 5 mM Glucose, 10 mM Hepes; adjusted to pH 7.4 with NaOH), pooled and Ringer solution added to adjust the volume to 50 mL. The cell suspension is centrifuged for […] at 1500 U/min (425 g). The supernatant is removed and the cells washed a second time with 50 ml fresh Ringer solution and centrifuged again as before. The supernatant is again removed and the pellet resuspended in Ringer solution to 1,000,000 cells/ml (1×10^6 cells/mL). The cells are plated onto BD BioCoat Poly-D-Lysine 384 well plates (20.000 cells/well; 20 μl/well). The lid covered plates are then incubated until use at 37° C./10% CO2. For dye loading, 20 μl of Calcium-4 assay kit solution (prepared according to the manufacturer's description in Ringer solution) are added to the cells and the plates are incubated for 80 min 37° C. and then 10 min at room temperature.
Controls, Compound Dilution and Assay Execution:
Each assay plate contained wells with “high” and “low” controls:
Low controls 1% DMSO/ringer solution+basal glutamate activation (defined as 100% CTL).
High controls 10 μM CDPPB+basal glutamate activation (defined as 200% CTL).
Test compounds are dissolved and diluted in DMSO to 100-fold the desired concentrations. In a second step, the compounds are diluted in Ringer solution such that the compounds are 4-fold more concentrated than the desired final assay concentration. The final DMSO concentration was 1%.
20 μl of each compound solution are then transferred to the assay plate and the Ca2+ kinetic is measured to determine any intrinsic compound activity. After 5 min incubation in the FLIPR device, the second stimulation with 20 μl of glutamate in Ringer solution (glutamate concentration adjusted to approximately 5% basal stimulation of the maximal possible glutamate effect) is added and the kinetic Ca2+ response of the wells was measured for the modulation effect.
The peak height of the Ca release related fluorescence signal (9-66) is used for the EC50. The EC50 of the modulation is calculated over a nonlinear regression with GraphPad Prism (Table 1).
In the case of `CC(C)Oc1cc(N2CCN(C(=O)Cn3nc(-c4ccc(F)cc4)nc3-c3ccc(F)cc3)CC2)ncn1` [Example 07.06.04.], the EC50 stood at 153 nM. As for `O=C(Cn1nc(-c2ccccc2)nc1C1=CCCC1)N1CCN(c2ncccn2)CC1` [Example 07.10.23.], the EC50 is 459 nM. For `O=C(Cn1nc(-c2ccc(F)cc2)nc1-c1ccc(F)cc1)N1CCN(c2cc(C(F)(F)F)ccn2)CC1` [Example 07.02.07.], the 50% effective concentration (EC50) turned out to be 217 nM.

For the molecule `Cc1ccnc(N2CCN(C(=O)Cn3nc(-c4ccc(F)c(C)c4)nc3C(C)C)CC2)c1` [Example 07.04.090.], the concentration giving a half-maximal response (EC50) is 1160 nM.

`CCCCc1nc(-c2ccc(F)c(C)c2)nn1CC(=O)N1CCN(c2ncccn2)CC1` [Example 07.04.117.]: the EC50 was 390 nM. The result for `COc1ccc(-c2nc(C3CCCCC3)n(CC(=O)N3CCN(c4cc(C)ccn4)CC3)n2)c(F)c1` [Example 07.04.021.] reads 647 nM. `CCc1cc(N2CCN(C(=O)Cn3nc(-c4ccc(F)cc4)nc3-c3ccc(F)cc3)CC2)ncn1` [Example 07.03.26.]: the concentration giving a half-maximal response (EC50) was found to be 177 nM. The result for `O=C(Cn1nc(-c2ccc(F)cc2)nc1-c1ccc(F)cc1)N1CCN(c2nccc(C(F)(F)F)n2)CC1` [Example 07.03.03.] reads 595 nM; that for `COc1ccnc(N2CCN(C(=O)Cn3nc(-c4ccc(F)c(C)c4)nc3-c3ccccc3)CC2)c1` [Example 07.04.063.], 61 nM.

Regarding `Cc1cc(-c2nc(-c3ccccc3)n(CC(=O)N3CCN(c4ncccn4)CC3)n2)ccc1F` [Example 07.10.01., 2-(3-(4-fluoro-3-methyl-phenyl)-5-phenyl-(1,2,4)triazol-1-yl)-1-(4-pyrimidin-2-yl-piperazin-1-yl)-ethanone], the EC50 was determined as 11 nM. Turning to `N#Cc1ccnc(N2CCN(C(=O)Cn3nc(-c4ccc(F)cc4)nc3-c3ccc(F)cc3)CC2)c1` [Example 07.02.08.], the half-maximal effective concentration (EC50) was determined as 36 nM.

Regarding `COc1cc(N2CCN(C(=O)Cn3nc(-c4ccc(F)c(F)c4)nc3-c3ccccc3)CC2)ncn1` [Example 07.10.33.], the 50% effective concentration (EC50) was 359 nM.

For `Cc1ccnc(N2CCN(C(=O)Cn3nc(-c4ccc(F)c(C)c4)nc3C3CCCCC3)CC2)c1` [Example 07.04.067.], the EC50 was 207 nM. As for `O=C(Cn1nc(-c2ccc(F)cc2)nc1-c1ccc(F)cc1)N1CCN(c2cc(OC3CCOCC3)ncn2)CC1` [Example 07.09.21.], the concentration for a half-maximal effect (EC50) came out at 79 nM.

In the case of `Cc1cc(-c2nc(C(C)C)n(CC(=O)N3CCN(c4ccccn4)CC3)n2)ccc1F` [Example 07.04.087.], the EC50 turned out to be 904 nM. For `COc1cc(N2CCN(C(=O)Cn3nc(-c4ccc(F)c(C)c4)nc3C3CCCC(C)C3)CC2)ncn1` (stereo not shown) [Example 07.04.147.] the value was 713 nM; for `N#Cc1cccnc1N1CCN(C(=O)Cn2nc(-c3ccc(F)cc3)nc2-c2ccc(F)cc2)CC1` [Example 07.02.01., 2-(4-(2-(3,5-Bis-(4-fluoro-phenyl)-(1,2,4)triazol-1-yl)-acetyl)-piperazin-1-yl)-nicotinonitrile], 190 nM. For `COc1cnnc(N2CCN(C(=O)Cn3nc(-c4ccc(F)c(C)c4)nc3-c3ccccc3)CC2)c1` [Example 07.04.064.] the value was 192 nM; for `O=C(Cn1nc(-c2ccc(OC(F)F)cc2)nc1-c1ccccc1)N1CCN(c2ccccn2)CC1` [Example 7.04.164], 22 nM; for `CC(C)CCN(C)c1cc(N2CCN(C(=O)Cn3nc(-c4ccc(F)cc4)nc3-c3ccc(F)cc3)CC2)ncn1` [Example 07.08.08.], 359 nM. The result for `O=C(Cn1nc(-c2ccc(F)cc2)nc1-c1ccc(F)cc1)N1CCN(c2cc(OCCOCCOCCO)ncn2)CC1` [Example 07.09.16.] reads 173 nM.

`COc1cc(N2CCN(C(=O)Cn3nc(-c4ccc(F)c(C)c4)nc3-c3ccc(F)c(C)c3)CC2)ncn1` [Example 07.04.155.]: the 50% effective concentration (EC50) was 59 nM.

As for `Cc1ccc(-c2nc(-c3ccccc3)n(CC(=O)N3CCN(c4ncccn4)CC3)n2)cc1` [Example 07.10.12.], the concentration giving a half-maximal response (EC50) came out at 23 nM.

`COc1ccc(-c2nc(-c3ccc(F)cc3)n(CC(=O)N3CCN(c4cc(C)ccn4)CC3)n2)cc1` [Example 07.04.032.]: the concentration for a half-maximal effect (EC50) came to 39 nM. The result for `O=C(Cn1nc(-c2ccc(F)cc2)nc1-c1ccc(F)cc1)N1CCN(c2cc(NCc3ccccn3)ncn2)CC1` [Example 07.08.17.] reads 286 nM. For `CC(=O)N1CCC(Oc2cc(N3CCN(C(=O)Cn4nc(-c5ccc(F)cc5)nc4-c4ccc(F)cc4)CC3)ncn2)CC1` [Example 07.09.08.] the value was 74 nM; for `O=C1CCCN1CCOc1cc(N2CCN(C(=O)Cn3nc(-c4ccc(F)cc4)nc3-c3ccc(F)cc3)CC2)ncn1` [Example 07.09.12.], 170 nM. The result for `Cc1cc(-c2nc(-c3ccccc3)nn2CC(=O)N2CCN(c3ncccn3)CC2)ccc1Br` [Example 07.01.07.] reads 66 nM; that for `COc1cccc(-c2nc(C3CCCCC3)n(CC(=O)N3CCN(c4ccccn4)CC3)n2)c1` [Example 07.04.053.], 1150 nM; that for `CCC(C)c1nc(-c2ccc(F)c(C)c2)nn1CC(=O)N1CCN(c2cccnn2)CC1` (stereo not shown) [Example 07.04.104.], 1850 nM. `O=C(Cn1nc(-c2ccc(F)cc2)nc1-c1ccc(F)cc1)N1CCN(c2cc3ccccc3cn2)CC1` [Example 07.04.005.]: the EC50 was 400 nM. For `Cc1ccnc(N2CCN(C(=O)Cn3nc(-c4ccc(F)c(C)c4)nc3C3CCCC3)CC2)c1` [Example 07.04.114.] the value was 495 nM.

Turning to `O=C(Cn1nc(-c2ccc(F)cc2)nc1-c1ccc(F)cc1)N1CCN(c2cc(OCc3ccccn3)ncn2)CC1` [Example 07.09.13.], the concentration for a half-maximal effect (EC50) was determined as 47 nM. For `CN1CCC(Nc2cc(N3CCN(C(=O)Cn4nc(-c5ccc(F)cc5)nc4-c4ccc(F)cc4)CC3)ncn2)CC1` [Example 07.08.16.] the value was 1160 nM; for `CCOc1ccnc(N2CCN(C(=O)Cn3nc(-c4ccc(F)cc4)nc3-c3ccc(F)cc3)CC2)c1` [Example 07.05.01., 2-(3,5-Bis-(4-fluoro-phenyl)-(1,2,4)triazol-1-yl)-1-(4-(4-ethoxy-pyridin-2-yl)-piperazin-1-yl)-ethanone], 50 nM; for `COc1ccnc(N2CCN(C(=O)Cn3nc(-c4ccc(F)c(C)c4)nc3C3CCCCC3C)CC2)c1` (stereo not shown) [Example 07.04.136.], 1220 nM.

For the molecule `CCc1nc(-c2ccc(F)c(C)c2)nn1CC(=O)N1CCN(c2cc(OC)ncn2)CC1` [Example 07.04.093.], the EC50 came out at 1730 nM. The result for `COc1ccc(-c2nc(-c3ccc(F)cc3)n(CC(=O)N3CCN(c4ccccn4)CC3)n2)cc1` [Example 07.04.035.] reads 40 nM. For `Cc1cc(-c2nc(-c3ccccc3)n(CC(=O)N3CCN(c4ncc(Br)cn4)CC3)n2)ccc1Br` [Example 07.04.057.] the value was 75 nM; for `COCCOc1cc(N2CCN(C(=O)Cn3nc(-c4ccc(F)cc4)nc3-c3ccc(F)cc3)CC2)ncn1` [Example 07.06.03.], 101 nM.

On to `CN(c1cc(N2CCN(C(=O)Cn3nc(-c4ccc(F)cc4)nc3-c3ccc(F)cc3)CC2)ncn1)C1CC1` [Example 07.08.18.], for which the EC50 amounted to 455 nM. The result for `CCCc1nc(-c2ccc(OC(F)F)cc2)nn1CC(=O)N1CCN(c2ncccn2)CC1` [Example 7.04.168] reads 249 nM. For `Cc1ccnc(N2CCN(C(=O)Cn3nc(-c4ccc(F)cc4)nc3-c3ccc(F)cc3)CC2)c1` [Example 07.02.05.] the value was 44 nM.
